{"source": "patent US8334315B2", "about": "“Substituted aromatic carboxamide and urea derivatives as vanilloid receptor ligands” (Gruenenthal GmbH, priority 2009, dated 2012)", "key": {"hVR1 [1]": {"biological_target": "T1, hVR1 (Homo sapiens, UniProt Q8NER1)", "T1 construct": "expressed in transfected cells; host or cells: CHO K1 cells (ECACC), stably transfected", "T1 sequence (Q8NER1 whole entry)": "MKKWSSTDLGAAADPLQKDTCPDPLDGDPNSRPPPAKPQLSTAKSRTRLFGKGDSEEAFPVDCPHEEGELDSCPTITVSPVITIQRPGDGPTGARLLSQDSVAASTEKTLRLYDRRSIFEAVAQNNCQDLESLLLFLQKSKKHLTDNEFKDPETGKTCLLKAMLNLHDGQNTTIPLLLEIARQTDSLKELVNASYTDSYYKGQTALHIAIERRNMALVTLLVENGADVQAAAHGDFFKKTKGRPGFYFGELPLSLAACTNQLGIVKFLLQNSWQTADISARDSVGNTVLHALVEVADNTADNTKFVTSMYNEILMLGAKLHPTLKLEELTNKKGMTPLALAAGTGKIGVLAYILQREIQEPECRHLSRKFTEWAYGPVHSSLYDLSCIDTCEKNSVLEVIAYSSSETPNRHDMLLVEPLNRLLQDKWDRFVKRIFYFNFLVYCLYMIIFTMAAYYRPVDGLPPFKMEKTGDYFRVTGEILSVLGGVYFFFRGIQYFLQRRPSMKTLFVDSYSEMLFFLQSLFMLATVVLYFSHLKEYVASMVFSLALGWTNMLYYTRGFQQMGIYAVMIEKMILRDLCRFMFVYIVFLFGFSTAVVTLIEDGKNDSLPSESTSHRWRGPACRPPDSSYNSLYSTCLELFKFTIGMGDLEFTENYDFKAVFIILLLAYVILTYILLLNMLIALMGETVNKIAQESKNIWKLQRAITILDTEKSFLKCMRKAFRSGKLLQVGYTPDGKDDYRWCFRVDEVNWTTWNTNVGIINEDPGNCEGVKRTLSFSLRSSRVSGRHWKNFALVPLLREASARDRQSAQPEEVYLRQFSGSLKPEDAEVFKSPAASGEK", "assay": "Functional test on hVR1 after pH stimulus", "type": "cell-based, human being", "set-up": "key to IC50 (human being) hVR1, pH: agonist / partial agonist / no effect: AG=agonist; pAG=partial agonist; NE=no effect", "conditions": "for inhibition at 10 µM: read-out: IC50 (human being) hVR1, pH: inhibition (as a percentage)"}, "hVR1 [2]": {"biological_target": "T1, hVR1", "assay": "Functional test on human VR1, 45° C. stimulus", "type": "cell-based, human being", "set-up": "key to IC50 (human being), 45° C.: agonist / partial agonist / no effect: AG=agonist; pAG=partial agonist; NE=no effect"}, "NMRI mice": {"system": "NMRI mice", "assay": "Neuropathic pain in mice, Bennett model (chronic constriction injury, cold allodynia) (CClm)", "type": "in vivo", "procedure": "VI. Neuropathic Pain in Mice\nEfficacy in […] pain was tested using the Bennett model (chronic constriction injury; Bennett and Xie, 1988, Pain 33: 87-107).\nThree loose ligatures are tied around the right ischiadic nerve of Ketavet/Rompun-anaesthetised NMRI mice weighing 16-18 g. The animals develop hypersensitivity of the innervated paw caused by the damaged nerve, which hypersensitivity is quantified, following a recovery phase of one week, over a period of approximately three weeks by means of a cold metal plate (temperature 4° C.) (cold allodynia). The animals are observed on this plate over a period of 2 min and the withdrawal reactions of the damaged paw are counted. Based on the pre-value prior to the application of the substance, the substance's effect over a certain period of time is determined at various points in time (for example 15, 30, 45, or 60 min following application) and the resultant area under the curve (AUC) and/or the inhibition of cold allodynia at the individual measuring points is/are expressed as a percentage effect relative to the vehicle control (AUC) or to the starting value (individual measuring points). The group size is n=10, the significance of an antiallodynic effect (*=p<0.05) is determined with the aid of an analysis of variance with repeated measures and Bonferroni post hoc analysis.\nCClm=Bennet model in mice"}, "hVR1 [3]": {"biological_target": "T1, hVR1", "assay": "Functional test on human VR1, NADA (N-arachidonoyl dopamine) stimulus", "type": "cell-based, human being", "set-up": "key to Ki (human being) NADA: agonist / partial agonist / no effect: AG=agonist; pAG=partial agonist; NE=no effect", "conditions": "for Ki: includes values given in brackets after pAG, read-out: Ki (human being) [nM] NADA", "description": "II. Functional Tests Carried Out on the Vanilloid Receptor (VR1)\nThe agonistic or antagonistic effect of the substances to be tested on the vanilloid receptor 1 (VR1) can also be determined using the following assay. In this assay, the influx of Ca^2+ through the channel is quantified with the aid of a Ca^2+-sensitive dye (type Fluo-4, Molecular Probes Europe BV, Leiden, the Netherlands) in a fluorescent imaging plate reader (FLIPR, Molecular Devices, Sunnyvale, USA).\nChinese hamster ovary cells (CHO K1 cells, European Collection of Cell Cultures (ECACC) United Kingdom) are stably transfected with the VR1 gene. For functional testing, these cells are plated out on poly-D-lysine-coated black 96-well plates having a clear base (BD Biosciences, Heidelberg, Germany) at a density of 25,000 cells/well. The cells are incubated overnight at 37° C. and 5% CO2 in a culture medium (Ham's F12 nutrient mixture, 10% by volume of FCS (foetal calf serum), 18 μg/ml of L-proline). The next day the cells are incubated with Fluo-4 (Fluo-4 2 μM, 0.01% by volume of Pluronic F127, Molecular Probes in HBSS (Hank's buffered saline solution), Gibco Invitrogen GmbH, Karlsruhe, Germany) for 30 minutes at 37° C. Subsequently, the plates are washed three times with HBSS buffer and after further incubation for 15 minutes at RT used for Ca^2+ measurement in a FLIPR assay. The Ca^2+-dependent fluorescence is measured before and after the addition of the substances to be tested (λex wavelength=488 nm, λem=540 nm). Quantification is carried out by measuring the highest fluorescence intensity (FC, fluorescence counts) over time.\nThe FLIPR protocol consists of 2 substance additions. First the compounds to be tested (10 μM) are pipetted onto the cells and the Ca^2+ influx is compared with the control (capsaicin 10 μM) (% activation based on the Ca^2+ signal after the addition of 10 μM of capsaicin). […]\nDesensitising agonists and antagonists led to suppression of the Ca^2+ influx. The % inhibition is calculated compared to the maximum achievable inhibition with 10 μM of capsaicin.\nStarting from the percentage displacement caused by different concentrations of the compounds to be tested of general formula I, IC50 inhibitory concentrations which cause a 50-per cent displacement of capsaicin were calculated. Ki values for the test substances were obtained by conversion by means of the Cheng-Prusoff equation (Cheng, Prusoff; Biochem. Pharmacol. 22, 3099-3108, 1973).\nNADA=N-arachidonoyl dopamine"}}}
{"molecule": "CC(C(=O)NCc1cc(C(C)(C)C)nn1-c1cccc(Cl)c1)c1ccc2c(c1)OCO2", "note": "(centres unmarked) [Example 11, 2-(benzo[d][1,3]dioxol-5-yl)-N-((3-tert-butyl-1-(3-chlorophenyl)-1H-pyrazol-5-yl)methyl)propanamide]", "values": [{"measurement": "inhibition at 10 µM", "setting": "hVR1 [1]", "result": 36, "unit": "%"}, {"measurement": "IC50 (human being), 45° C.: agonist / partial agonist / no effect", "setting": "hVR1 [2]", "result": "pAG"}, {"measurement": "CClm (Bennett model, percentage effect on cold allodynia)", "setting": "NMRI mice; 0.1 iv", "result": "CClm 77%"}, {"measurement": "Ki (human being) NADA: agonist / partial agonist / no effect", "setting": "hVR1 [3]", "result": "pAG"}]}
{"molecule": "CC(C(=O)NCc1cc(C(C)(C)C)nn1-c1cccc(Cl)c1)c1ccc2c(c1)OCCO2", "note": "(centres unmarked) [Example 13, N-((3-tert-butyl-1-(3-chlorophenyl)-1H-pyrazol-5-yl)methyl)-2-(2,3-dihydrobenzo[b][1,4]dioxin-6-yl)propanamide]", "values": [{"measurement": "inhibition at 10 µM", "setting": "hVR1 [1]", "result": 49, "unit": "%"}, {"measurement": "IC50 (human being), 45° C.: agonist / partial agonist / no effect", "setting": "hVR1 [2]", "result": "pAG"}, {"measurement": "CClm (Bennett model, percentage effect on cold allodynia)", "setting": "NMRI mice; 0.1 iv", "result": "CClm 85%"}, {"measurement": "Ki (human being) NADA: agonist / partial agonist / no effect", "setting": "hVR1 [3]", "result": "pAG"}, {"measurement": "Ki", "setting": "hVR1 [3]", "result": 4.3, "unit": "nM"}]}
{"molecule": "Cc1nc2ccc(C(C)C(=O)NCc3cc(C(F)(F)F)nn3-c3cccc(Cl)c3)cc2s1", "note": "(centres unmarked) [Example 45, N-((1-(3-chlorophenyl)-3-(trifluoromethyl)-1H-pyrazol-5-yl)methyl)-2-(2-methylbenzo[d]thiazol-6-yl)propanamide]", "values": [{"measurement": "Ki (human being) NADA: agonist / partial agonist / no effect", "setting": "hVR1 [3]", "result": "pAG"}, {"measurement": "Ki", "setting": "hVR1 [3]", "result": 11.8, "unit": "nM"}]}
{"molecule": "CC(C(=O)NCc1cc(C(F)(F)F)nn1-c1cccc(Cl)c1)c1ccc2cc(O)ccc2c1", "note": "(centres unmarked) [Example 50, N-((1-(3-chlorophenyl)-3-(trifluoromethyl)-1H-pyrazol-5-yl)methyl)-2-(6-hydroxynaphthalen-2-yl)propanamide]", "values": [{"measurement": "IC50 (human being) hVR1, pH: agonist / partial agonist / no effect", "setting": "hVR1 [1]", "result": "pAG"}, {"measurement": "IC50 (human being), 45° C.: agonist / partial agonist / no effect", "setting": "hVR1 [2]", "result": "pAG"}, {"measurement": "CClm (Bennett model, percentage effect on cold allodynia)", "setting": "NMRI mice; 0.1 iv", "result": "CClm 83%"}]}
{"molecule": "CC(C(=O)NCc1cc(C(F)(F)F)nn1-c1cccc(Cl)c1)c1cccc2cnccc12", "note": "(centres unmarked) [Example 64, N-((1-(3-chlorophenyl)-3-(trifluoromethyl)-1H-pyrazol-5-yl)methyl)-2-(isoquinolin-5-yl)propanamide]", "values": [{"measurement": "IC50", "setting": "hVR1 [2]; read-out: IC50 (human being) [nM], 45° C.", "result": 357, "unit": "nM"}, {"measurement": "CClm (Bennett model, percentage effect on cold allodynia)", "setting": "NMRI mice; 1 iv", "result": "CClm 62%"}, {"measurement": "Ki", "setting": "hVR1 [3]", "result": 0.02, "unit": "nM"}]}
{"molecule": "CC(C)(C)c1cc(CNC(=O)Nc2ccc3c(c2)CCC3)n(-c2cccc(Cl)c2)n1", "note": "[Example 79, 1-((3-tert-butyl-1-(3-chlorophenyl)-1H-pyrazol-5-yl)methyl)-3-(2,3-dihydro-1H-inden-5-yl)urea]", "values": [{"measurement": "inhibition at 10 µM", "setting": "hVR1 [1]", "result": 21, "unit": "%"}, {"measurement": "CClm (Bennett model, percentage effect on cold allodynia)", "setting": "NMRI mice; 1 po", "result": "CClm 70%"}, {"measurement": "Ki", "setting": "hVR1 [3]", "result": 12.6, "unit": "nM"}]}
